In PubChem BioAssay AID493146 (Sanford-Burnham Center for Chemical Genomics, 2011):
pEC50: −log10 of the molar value. Activity calls are given as the source filed them. The rule behind the calls is not given here.

Target: intestinal alkaline phosphatase (Alpi), Mus musculus
Experiment: activators of mouse IAP enzyme, SAR follow-up, biochemical, luminescence (AID 493146)
Conditions: purified mouse IAP, luminescent substrate, activation

SMILES | EC50 | pEC50
O=C(N/N=C/C1CC2CCC1C2)c1cc(O)c(O)c(O)c1 (stereo unspecified) | > 100 µM (inactive) | –
COc1ccccc1CNC(=O)CCNS(=O)(=O)c1ccc2[nH]c(=O)oc2c1 | > 100 µM (inactive) | –
O=C(CCNS(=O)(=O)c1ccc2[nH]c(=O)oc2c1)Nc1cccc(-c2ccno2)c1 | > 100 µM (inactive) | –
Cc1ccc(C)c(NC(=O)CCNS(=O)(=O)c2ccc3[nH]c(=O)oc3c2)c1 | > 100 µM (inactive) | –
N#Cc1c(SCC(=O)NCc2ccc3c(c2)OCO3)sc2c(O)cc(=O)[nH]c12 | > 100 µM (inactive) | –
O=C(CN1C(=O)/C(=C\c2ccco2)SC1=S)Nc1ccc(C(=O)O)cc1 | > 100 µM (inactive) | –
O=C(CN1C(=O)/C(=C/c2ccco2)SC1=S)NC1C=CS(=O)(=O)C1 (stereo unspecified) | > 100 µM (inactive) | –
O=C(CN1C(=O)/C(=C/c2ccco2)SC1=S)NC1CCS(=O)(=O)C1 (stereo unspecified) | > 100 µM (inactive) | –
COc1cc(C(=O)NNC(=S)NC(=O)c2ccc(Cl)cc2)cc(OC)c1OC | > 100 µM (inactive) | –
CC(C(=O)NCCc1ccc(O)cc1)N1C(=O)/C(=C/c2ccco2)SC1=S (stereo unspecified) | > 100 µM (inactive) | –
COc1cc(C(=O)NNC(=O)C2CC2)cc(OC)c1OC | > 100 µM (inactive) | –
N#Cc1cccc(NC(=O)CCNS(=O)(=O)c2ccc3[nH]c(=O)oc3c2)c1 | > 100 µM (inactive) | –
O=C(CCN1C(=O)/C(=C/c2ccco2)SC1=S)Nc1ccc(O)cc1C(=O)O | > 100 µM (inactive) | –
COc1cc(C(=O)NNC(=O)c2n[nH]c3ccccc23)cc(OC)c1OC | > 100 µM (inactive) | –
CCc1nnc(NC(=O)CSc2sc3c(O)cc(=O)[nH]c3c2C#N)s1 | > 100 µM (inactive) | –
O=S(=O)(Nc1ncccn1)c1ccc(NC(=S)NCCC(c2ccccc2)c2ccccc2)cc1 | > 100 µM (inactive) | –
O=C(N/N=C/c1ccco1)c1cc(O)c(O)c(O)c1 | > 100 µM (inactive) | –
COc1ccc(NC(=S)NCCC(c2ccccc2)c2ccccc2)cc1 | – | 4.42
Cc1ccc(NC(=O)CCNS(=O)(=O)c2ccc3[nH]c(=O)oc3c2)cc1F | > 100 µM (inactive) | –
N#Cc1c(SCC(=O)Nc2nncs2)sc2c(O)cc(=O)[nH]c12 | > 100 µM (inactive) | –

Results, then the compound that gave them:

EC50 | pEC50 | SMILES
> 100 µM (inactive) | – | N#Cc1c(SCC(=O)Nc2ccccc2C(F)(F)F)sc2c(O)cc(=O)[nH]c12
> 100 µM (inactive) | – | O=[N+]([O-])c1ccc(NC(=S)NCCC(c2ccccc2)c2ccccc2)cc1
> 100 µM (inactive) | – | N#Cc1c(SCC(=O)Nc2ccc(C(F)(F)F)cc2)sc2c(O)cc(=O)[nH]c12
> 100 µM (inactive) | – | COc1ccc(CNC(=O)CSc2sc3c(O)cc(=O)[nH]c3c2C#N)cc1
> 100 µM (inactive) | – | CC(C)N1CCC(=NNC(=O)c2cc(O)c(O)c(O)c2)CC1
> 100 µM (inactive) | – | O=C(c1ccco1)N1CCN(S(=O)(=O)c2ccc3[nH]c(=O)oc3c2)CC1
> 100 µM (inactive) | – | O=C(CN1C(=O)/C(=C\c2ccco2)SC1=S)Nc1ccccc1C(=O)O
> 100 µM (inactive) | – | O=C(N/N=C/c1ccc(F)cc1)c1cc(O)c(O)c(O)c1
> 100 µM (inactive) | – | CCOC(=O)N1CCN(S(=O)(=O)c2ccc3[nH]c(=O)oc3c2)CC1
> 100 µM (inactive) | – | O=C(CN1C(=O)/C(=C/c2ccco2)SC1=S)N[C@@H]1CSC[C@@H]1O
> 100 µM (inactive) | – | CCOc1cccc(NC(=O)CSc2sc3c(O)cc(=O)[nH]c3c2C#N)c1
> 100 µM (inactive) | – | C/C(=N\NC(=O)c1cc(O)c(O)c(O)c1)c1ccncc1
> 100 µM (inactive) | – | O=C(C1CCN(S(=O)(=O)c2ccc3[nH]c(=O)oc3c2)CC1)N1CC=C(c2ccccc2)CC1
> 100 µM (inactive) | – | O=C(CN1C(=O)/C(=C/c2ccco2)SC1=S)Nc1ccc(C(=O)O)c(O)c1
> 100 µM (inactive) | – | COc1cccc(/C=N/NC(=O)c2cc(O)c(O)c(O)c2)c1
> 100 µM (inactive) | – | CC(C)C(C(=O)NC1CCS(=O)(=O)C1)N1C(=O)/C(=C\c2ccco2)SC1=S (stereo unspecified)
